Assay results from patent US7582622B2 (N.V. Organon, priority 2003, dated 2009).

How the values were obtained:
[1] = tested on: serum LH; assay: LH suppression assay in mature male castrated rats, p.o.; type: in vivo, rat; settings: for oral activity (in words): statement in the introduction, test not named; for LH-Suppression MAD po: minimal active dose suppressing serum LH for 65%, castrated male rats, p.o. 4 days daily
Experimental: The in vivo potency of the compounds of the invention was determined in a mature male castrated rat model.
In this model serum LH is high (about 20× fold higher than with intact rats, due to the absence of the negative feedback of testicular testosterone). These rats are p.o. treated for 4 days daily with a given compound of the invention in a suspension fluid of arachis oil or arachis oil +5 or 10% ethanol. Before dosing and 3 hours after the last oral dose blood is collected via tail vein and in the serum LH is determined. Potency (p.o.) of the compounds of the invention (minimal active dose, MAD) is expressed as the amount (mg/kg) of a compound of the invention which suppresses serum LH for 65% (with a 95% confidence interval).
The rat LH Time-Resolved Immuno Fluorometric Assay (TR-IFMA) has been developed in house using home made reagents, a monoclonal catching antibody directed against the β-subunit of human chorion gonadotrophin (hCG, which cross reacts with rat β-subunit) and a biotin labelled detecting antibody (rabbit polydonal antibody directed against the alfa-subunit of recombinant rat LH). Recombinant rat LH was prepared according to known methods, e.g., the method described by Hakola et aL., Molecular & Cellular Endocrinology (1997), 128, 47-56. In this two-site-IFMA, only intact rat LH is determined by a final incubation with streptavidin-europium. The detection in the IFMA is based on fluorescence of the lanthanide europium during a relative long excitation period. The concentration range of rat LH standard is 0.001-10 ng/ml, for optimal accuracy measurements of serum LH serum samples were diluted 8-times with assay buffer (J. I. van Casteren et al., Biol. Reprod. (2000), 62, 886-894).

[2] = target: T1, human androgen receptor (hAR) (Homo sapiens, UniProt P10275); assay: transactivative androgen agonistic activity, CHO cells transfected with hAR, MMTV-luciferase; type: cell-based; design: Androgenic Activity (%): concentration or dose not given beside the values; settings: for Androgenic Activity (%): compared with 5α-dihydrotestosterone, CHO-hAR, 16 h, 37° C.
T1 construct: expressed in transfected cells; host or cells: Chinese hamster ovary cells (CHO)
T1 sequence (P10275 1-920): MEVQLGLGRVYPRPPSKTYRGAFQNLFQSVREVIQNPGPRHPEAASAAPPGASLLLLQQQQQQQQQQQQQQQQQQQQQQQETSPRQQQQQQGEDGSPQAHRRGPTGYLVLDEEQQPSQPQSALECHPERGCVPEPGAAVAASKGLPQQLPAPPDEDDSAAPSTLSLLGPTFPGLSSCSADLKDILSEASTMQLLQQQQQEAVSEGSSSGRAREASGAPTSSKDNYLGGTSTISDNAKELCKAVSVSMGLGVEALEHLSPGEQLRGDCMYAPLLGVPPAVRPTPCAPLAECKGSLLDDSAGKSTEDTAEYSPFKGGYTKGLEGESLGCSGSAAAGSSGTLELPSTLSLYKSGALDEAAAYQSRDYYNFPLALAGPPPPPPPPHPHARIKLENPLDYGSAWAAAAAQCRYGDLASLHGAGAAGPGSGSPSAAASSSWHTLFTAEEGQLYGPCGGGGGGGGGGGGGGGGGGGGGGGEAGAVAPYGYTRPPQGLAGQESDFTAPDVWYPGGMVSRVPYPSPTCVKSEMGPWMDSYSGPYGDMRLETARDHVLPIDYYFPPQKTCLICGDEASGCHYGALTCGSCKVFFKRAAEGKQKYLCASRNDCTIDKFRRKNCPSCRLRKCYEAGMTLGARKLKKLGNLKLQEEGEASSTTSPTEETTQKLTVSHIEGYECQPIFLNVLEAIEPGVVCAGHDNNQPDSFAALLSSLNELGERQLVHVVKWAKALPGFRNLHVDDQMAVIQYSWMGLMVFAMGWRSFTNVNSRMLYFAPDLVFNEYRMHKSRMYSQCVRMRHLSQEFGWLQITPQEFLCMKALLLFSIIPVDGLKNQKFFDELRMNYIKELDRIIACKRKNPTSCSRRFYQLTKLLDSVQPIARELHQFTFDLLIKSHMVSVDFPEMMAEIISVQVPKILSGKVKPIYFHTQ
Experimental: The transactivative androgen agonistic activity of the compounds of the invention was measured in Chinese hamster ovary cells (CHO) transfected with the human androgen receptor (hAR), in combination with a mouse mammary tumor virus (MMTV), and luciferase receptor gene (incubation time 16 h, temperature 37° C.) and compared with the activity of 5α-dihydrotestosterone [according to the procedure described by Schoonen, W. G. E. J. et aL., Analyt. Biochem. 261, 222-224 (1998)].

[3] = Anti-osteoporosis test in mature male castrated rats (6 weeks treatment); type: in vivo, rat; settings: for Mean proportional difference in bone density: placebo intact 100%, placebo orx 0%; for BMD (gmean ± sem): orx male rats, trabecular BMD of femur
Experimental: In this test the oral efficacy of a compound of the invention for the prevention of castration-induced trabecular bone mineral density (BMD) loss in male rats was evaluated.
Mature male Wistar rats (350-400 g) were used. Orchidectomy (orx) or sham operation was performed under isoflurane anaesthesia. After recovery of anaesthesia, within 24 hours, rats were treated once daily for 6 weeks p.o. with different doses of the compounds of the invention or vehicle only (placebo intact, placebo orx) with a volume of 1 ml/kg (n=5). One day after the last administration autopsy is performed and the right femur is dissected out. Trabecular bone mineral density of the metaphysal part of the femur was measured with a pQCT (peripheral Quantitative Computed Tomography machine; XCT 960A, Stratec, Birkenfeld, Germany).

[4] = target: T2, human progesterone receptor B (hPRB) (Homo sapiens, UniProt P06401); assay: transactivative progestagenic agonistic activity, CHO cells transfected with hPRB, MMTV-luciferase; type: cell-based; design: Progestational Activity (%): concentration or dose not given beside the values; settings: for Progestational Activity (%): compared with (16α)-16-ethyl-21-hydroxy-19-norpregn-4ene-3,20-dione, CHO-hPRB, 16 h, 37° C.; for progestagenic activity (in words): statement in the introduction, test not named
T2 construct: expressed in transfected cells; host or cells: Chinese hamster ovary cells (CHO)
T2 sequence (P06401 1-933): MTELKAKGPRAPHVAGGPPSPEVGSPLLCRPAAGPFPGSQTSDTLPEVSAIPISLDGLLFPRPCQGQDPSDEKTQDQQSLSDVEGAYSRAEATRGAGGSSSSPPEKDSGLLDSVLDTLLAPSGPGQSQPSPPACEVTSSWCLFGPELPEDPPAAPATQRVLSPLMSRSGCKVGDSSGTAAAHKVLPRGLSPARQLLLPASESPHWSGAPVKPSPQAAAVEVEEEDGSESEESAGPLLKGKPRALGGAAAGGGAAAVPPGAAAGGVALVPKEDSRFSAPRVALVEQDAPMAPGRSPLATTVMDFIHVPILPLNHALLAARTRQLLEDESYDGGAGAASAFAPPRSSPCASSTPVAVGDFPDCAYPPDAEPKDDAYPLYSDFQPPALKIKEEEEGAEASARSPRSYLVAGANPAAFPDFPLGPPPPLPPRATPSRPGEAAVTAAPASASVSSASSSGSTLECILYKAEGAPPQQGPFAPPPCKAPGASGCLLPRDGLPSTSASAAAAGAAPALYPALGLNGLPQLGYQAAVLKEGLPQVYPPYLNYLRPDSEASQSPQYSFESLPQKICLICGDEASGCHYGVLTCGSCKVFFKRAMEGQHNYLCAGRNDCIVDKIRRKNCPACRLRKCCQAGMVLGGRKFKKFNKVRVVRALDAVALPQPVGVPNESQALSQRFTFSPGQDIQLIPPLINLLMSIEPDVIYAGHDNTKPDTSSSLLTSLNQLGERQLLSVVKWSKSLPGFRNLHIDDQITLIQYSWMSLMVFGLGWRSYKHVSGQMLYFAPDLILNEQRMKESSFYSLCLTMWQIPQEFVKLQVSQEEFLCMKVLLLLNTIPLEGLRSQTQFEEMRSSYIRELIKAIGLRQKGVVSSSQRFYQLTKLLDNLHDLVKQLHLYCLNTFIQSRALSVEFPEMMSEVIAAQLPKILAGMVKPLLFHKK
Experimental: The transactivative progestagenic agonistic activity of the compounds of the invention was measured in Chinese hamster ovary cells (CHO) transfected with the human progesterone receptor B (hPRB), in combination with a mouse mammary tumor virus (MMTV), and luciferase receptor gene (incubation time 16 h, temperature 37° C.) and compared with the activity of (16α)-16-ethyl-21-hydroxy-19-norpregn-4ene-3,20-dione [according to the procedure described by Schoonen, W. G. E. J. et al., Analyt. Biochem. 261, 222-224 (1998)].

[5] = prior art statement; cited from earlier work
[6] = J. Seaman, Toxicologic Pathology (1985); cited from earlier work

Compound	oral activity (in words) [1]	LH-Suppression MAD po [1]	Androgenic Activity (%) [2]	Progestational Activity (%) [4]	also measured
CCC1(O)CCCC2C3CCC4=CC(=O)CCC4C3CCC21CC [(17aβ)13,17a-diethyl-17a-hydroxy-D-homogon-4-en-3-one]	not orally active				
CCC12CCC3C4CCC(=O)C=C4CCC3C1CCCC2(C)O [(17aβ)-13-ethyl-17a-hydroxy-17a-methyl-D-homogon-4-en-3-one]	not orally active				
CCC12CCC3C4CCC(=O)C=C4CCC3C1CCCC2O [(17aβ)-13-ethyl-17a-hydroxy-D-homogon4-en-3-one]	not orally active				
CC1CC2=CC(=O)CCC2C2CCC3(C)C(CCCC3(C)O)C12 [Cpd of Example 1, (7α,17aβ)-17a-hydroxy-7,17a-dimethyl-D-homoestr4-en-3-one]		8.5 mg/kg	42.9%	53.3%	Mean proportional difference in bone density ([3]; 8 mg/kg p.o. 6 weeks): 133%; BMD (gmean ± sem) ([3]; 8 mg/kg p.o. once daily 6 weeks): 255 ± 22
CCC1(O)CCCC2C3C(C)CC4=CC(=O)CCC4C3CCC21C [Cpd of Example 2, (7α,17aβ)-17aethyl-17a-hydroxy-7-methyl-D-homoestr-4en-3-one]		10 mg/kg	9.9%	29.7%	
CC1(O)CCCC2C3CCC4=CC(=O)CCC4C3CCC21C [Reference compound A, (17aβ)-17a-Hydroxy-17a-methyl-D-homoestr-4-en-3-one]	low activity upon oral administration	>30 mg/kg	71.6%	98.0%	Mean proportional difference in bone density ([3]; 16 mg/kg p.o. 6 weeks): 28%; BMD (gmean ± sem) ([3]; 16 mg/kg p.o. once daily 6 weeks): 133 ± 20; prevention of trabecular bone mineral density (BMD) loss (in words) ([3]; statement in the introduction): unable to prevent trabecular bone mineral density (BMD) loss; progestagenic activity (in words) [4]: progestagenic activity
CC1CC2=CC(=O)CCC2C2CCC3(C)C(O)CCCC3C12 [Reference compound B, (7α,17aβ)-17a-Hydroxy-7-methyl-D-homoestr-4-en-3-one]	not orally active	>30 mg/kg	25.3%	10.6%	androgenic activity (in words) ([2]; statement in the introduction, test not named): mixed androgenic and progestagenic profile; progestagenic activity (in words) [4]: mixed androgenic and progestagenic profile
C[C@@H]1CC2=CC(=O)CC[C@@H]2[C@H]2CC[C@@]3(C)[C@@H](CC[C@]3(C)O)[C@@H]21 [Reference compound C, (7α,17β)-17-Hydroxy-7,17-dimethylestr-4-en-3-one]		1.0 mg/kg	220%	45%	oral activity (in words) [5]: orally active; liver toxicity (in words) [6]: severe liver toxicity
